Experimental data from US20100222421A1, “Usage of Baicalein in the Preparation of a Pharmaceutical Composition for the Treatment of Traumatic Brain Injury” (National Defense Medical Center, priority 2009, published 2010).

How the values were obtained:
[1] = system: rats with controlled cortical impact (CCI) injury; assay: Beam walk test after CCI injury; assay type: in vivo, rat
Protocol: A previously described CCI injury procedure was utilized (Chen et al., 2003). Male Sprague-Dawley rats, which have body weight of 250-300 g, were anaesthetized with sodium pentobarbital (i.p.; 50 mgkg^−1; Rhone Merieux, Harlow, UK) and placed in a stereotaxic frame. A 5-mm craniotomy was performed over the left parietal cortex, centered on the coronal suture and 3 mm lateral to the sagittal suture. Considerable care was taken to avoid injury to the underlying dura. Injury was made using a pneumatic piston with a rounded metal tip (2.5 mm diameter) that was angled 22.5° C. to the vertical so that the tip was perpendicular with the brain surface at the centre of the craniotomy. A velocity of 4 ms^−1 and a deformation depth 2 mm below the dura were used. The bone flap was immediately replaced and sealed, and the scalp was closed with sutures. Body temperature was monitored throughout the surgery by a rectal probe; temperature was maintained at 37.0±0.5° C. using a heated pad. Rats were placed in a heated cage to maintain body temperature, while recovering from anaesthesia. Baicalein (30 mg kg^−1) dissolved in 10% dimethyl sulphoxide (0.25-0.3 mL) or a corresponding volume of vehicle (10% dimethyl sulphoxide) was administered i.p. immediately following injury or daily for 4 days (immediately, 25, 49 and 73 h) after injury. Behaviour testing using the rotarod, tactile adhesive removal, mNSS and beam walk tests was performed at 28 hours as well as 4, 7, 14, 21 and 28 days post-injury. At 14 and 28 days, the animals were killed, perfused intravascularly and their brains were processed with cresyl violet staining to assess contusion volume (n=8 for each group). […] Behaviour testing was performed before CCI and at […] by an observer who was unaware of the experimental treatments. The battery of tests consisted of the rotarod motor test, tactile adhesive-removal somatosensory test, mNSS and beam walk test. Animals were pretrained for 3 days for the rotarod, tactile adhesiveremoval somatosensory and beam walk tests (see below). The beam walk test was utilized to evaluate fine motor coordination and function (Feeney et al., 1982). Rats escaped from a bright light and loud white noise by walking along a narrowed wooden beam (2.5×122.0 cm) to enter a darkened goal box at the opposite end of the beam. The latency for the rat to reach the goal box (not to exceed 60 s) and hindlimb performance as he traversed the beam (based on a 1-7 rating scale) were recorded. A score of 7 was given when animals traversed the beam with two or less foot slips. A score of 6 was given when animals traversed the beam with less than 50% foot slips. A score of 5 was given for more than 50% but less than 100% foot slips. A score of 4 was given for 100% foot slips. A score of 3 was given for traversal with the affected limb extended and not reaching the surface of the beam. A score of 2 was given when the animal was able to balance on the beam but not traverse it. A score of 1 was given when the animal could not balance on the beam. Three trials were recorded 1 hour before CCI (baseline), and each day after CCI. Mean values of latency and score for each day were computed.

[2] = system: IL-1β mRNA; assay: Real-time quantitative RT-PCR, IL-1β mRNA after CCI injury; assay type: in vivo, rat; conditions: single-dose 30 mg kg^-1 i.p.; ipsilateral cortex, 6 h after injury; P<0.01
Protocol: A previously described CCI injury procedure was utilized (Chen et al., 2003). Male Sprague-Dawley rats, which have body weight of 250-300 g, were anaesthetized with sodium pentobarbital (i.p.; 50 mgkg^−1; Rhone Merieux, Harlow, UK) and placed in a stereotaxic frame. A 5-mm craniotomy was performed over the left parietal cortex, centered on the coronal suture and 3 mm lateral to the sagittal suture. Considerable care was taken to avoid injury to the underlying dura. Injury was made using a pneumatic piston with a rounded metal tip (2.5 mm diameter) that was angled 22.5° C. to the vertical so that the tip was perpendicular with the brain surface at the centre of the craniotomy. A velocity of 4 ms^−1 and a deformation depth 2 mm below the dura were used. […] Body temperature was monitored throughout the surgery by a rectal probe; temperature was maintained at 37.0±0.5° C. using a heated pad. […] Testing after injury was as follows: (1) real-time quantitative RT-PCR analysis for TNF-α, IL-1β and IL-6 mRNA expression at 6 h post-injury (n=7 for each group); (2) FluoroJade B (FJB) staining, TNF-α, IL-1β and IL-6 immunohistochemistry, as well as ELISA at 24 h post-injury to assess degenerative neurons and to determine cytokine expression (n=7 for each group). […] Approximately 50 mg tissue was collected from the ipsilateral (injured) hemisphere and processed for real-time quantitative RT-PCR. […]

O=c1cc(-c2ccccc2)oc2cc(O)c(O)c(O)c12 [baicalein]
differences in hindlimb motor scores between single-dose and multiple-dose groups ([1]; 30 mg kg^-1 i.p., any testing day, P>0.05): not significant | beam walk latencies, multiple-dose versus single-dose group ([1]; 30 mg kg^-1 i.p., days 1 and 4, P<0.05): significantly shorter | beam walk latencies versus vehicle group ([1]; multiple-dose 30 mg kg^-1 i.p. daily for 4 days, days 1, 4, 7, 21 and 28, P<0.05): significantly shorter | decrease in hindlimb motor scores (beam walk) versus vehicle group ([1]; multiple-dose 30 mg kg^-1 i.p. daily for 4 days, days 1, 4, 14, 21 and 28, P<0.05): significantly different | decrease in hindlimb motor scores (beam walk) versus vehicle group ([1]; single-dose 30 mg kg^-1 i.p., days 4, 7, 14 and 21, P<0.05): significantly different | beam walk latencies versus vehicle group ([1]; single-dose 30 mg kg^-1 i.p., days 4 and 21, P<0.05): significantly shorter | IL-1β mRNA level, % of level in vehicle-treated injured rats [2]: 63%
